From patent publication US11225484B2, “Substituted octahydropyrrolo[3,4-b]pyrroles as antagonists of the muscarinic acetylcholine receptor M4” (Vanderbilt University, priority 2017, dated 2022)
pIC50: −log10 of the molar value.

How the values were obtained:
Rat M4 = target: T1, Rat M4 (Rattus norvegicus, UniProt P08485); assay: mAChR M4 cell-based functional assay (calcium flux, rat M4/Gqi5/CHO cells); settings: for remaining activity at 30 µM: CHO, % ACh maximum at 30 μM, read-out: Emin (%) rat M4; for pIC50: antagonist mode, decrease of the response to an EC80 concentration of acetylcholine, CHO-K1 cells with Gqi5
T1 construct: expressed in transfected cells; host or cells: CHO-K1 (ATCC), co-transfected with chimeric G protein Gqi5
T1 sequence (P08485 1-478): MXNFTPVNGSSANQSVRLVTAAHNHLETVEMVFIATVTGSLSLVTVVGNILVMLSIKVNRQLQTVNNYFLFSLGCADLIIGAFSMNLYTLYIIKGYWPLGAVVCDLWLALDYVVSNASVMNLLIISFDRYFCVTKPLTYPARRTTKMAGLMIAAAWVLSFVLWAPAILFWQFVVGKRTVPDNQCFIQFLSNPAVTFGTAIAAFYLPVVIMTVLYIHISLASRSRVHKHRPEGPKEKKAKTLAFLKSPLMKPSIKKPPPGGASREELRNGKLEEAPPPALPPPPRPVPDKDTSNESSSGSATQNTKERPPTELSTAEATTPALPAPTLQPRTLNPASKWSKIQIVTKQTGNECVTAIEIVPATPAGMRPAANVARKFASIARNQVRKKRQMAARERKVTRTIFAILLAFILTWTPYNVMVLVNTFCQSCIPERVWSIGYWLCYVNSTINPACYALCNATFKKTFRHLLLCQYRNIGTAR
Experimental: (§1) Human or rat M4 cDNA, along with the chimeric G protein Gqi5, were transfected into Chinese hamster ovary (CHO-K1) cells purchased from the American Type Culture Collection using Lipofectamine2000. M4/Gqi5/CHO cells were grown in Ham's F-12 medium containing 10% heat-inactivated fetal bovine serum (FBS), 20 mM HEPES, 500 μg/mL G418 sulfate, and 200 μg/mL Hygromycin B.
(§2) For high throughput measurement of agonist-evoked increases in intracellular calcium, CHO-K1 cells stably expressing muscarinic receptors were plated in growth medium lacking G418 and hygromycin at 15,000 cells/20 μL/well in Greiner 384-well black-walled, tissue culture (TC)-treated, clear-bottom plates (VWR). Cells were incubated overnight at 37° C. and 5% CO2. The next day, cells were washed using an ELX 405 (BioTek) with assay buffer; the final volume was then aspirated to 20 μL. Next, 20 μL of a 2.3 μM stock of Fluo-4/acetoxymethyl ester (Invitrogen, Carlsbad, Calif.), prepared as a 2.3 mM stock in DMSO and mixed in a 1:1 ratio with 10% (w/v) Pluronic F-127 and diluted in assay buffer, was added to the wells and the cell plates were incubated for 50 min at 37° C. and 5% CO2. Dye was removed by washing with the ELX 405 and the final volume was aspirated to 20 μL. Compound master plates were formatted in a 10 point concentration-response curve (CRC) format (1:3 dilutions) in 100% DMSO with a starting concentration of 10 or 1 mM using a BRAVO liquid handler (Agilent). Test compound CRCs were then transferred to daughter plates (240 nL) using the Echo acoustic plate reformatter (Labcyte, Sunnyvale, Calif.) and then diluted into assay buffer (40 μL) to a 2× stock using a Thermo Fisher Combi (Thermo Fisher Scientific, Waltham, Mass.).
(§3) Calcium flux was measured using the Functional Drug Screening System (FDSS) 6000 or 7000 (Hamamatsu Corporation, Tokyo, Japan) as an increase in the fluorescent static ratio. Compounds were applied to cells (20 μL, 2×) using the automated system of the FDSS at 2 seconds into the protocol and the data were collected at 1 Hz. At 143 s, 10 μL of an EC20 concentration of the muscarinic receptor agonist acetylcholine was added (5×), followed by the addition of 12 μL of an EC80 concentration of acetylcholine at the 268 s time point (5×). Agonist activity was analyzed as a concentration-dependent increase in calcium mobilization upon compound addition. Positive allosteric modulator activity was analyzed as a concentration-dependent increase in the EC20 acetylcholine response. Antagonist activity was analyzed as a concentration-dependent decrease in the EC80 acetylcholine response for the purposes of the tables herein, an IC50 (inhibitory concentration 50) was calculated as a concentration-dependent decrease of the response elicited by an EC80 concentration of acetylcholine, Concentration-response curves were generated using a four-parameter logistical equation in XLFit curve fitting software (IDBS, Bridgewater, N.J.) for Excel (Microsoft, Redmond, Wash.) or Prism (GraphPad Software, Inc., San Diego, Calif.) or the Dotmatics software platform (Dotmatics, Bishop's Stortford, UK).
(§4) Compounds were synthesized as described above. Activity (IC50 and Emin) was determined in the mAChR M4 cell-based functional assay as described above and the data are shown in Table 2. The compound number corresponds to the compound numbers used in Examples 1-3.

Human M4 = target: T2, Human M4 (Homo sapiens, UniProt P08173); assay: mAChR M4 cell-based functional assay (calcium flux, human M4/Gqi5/CHO cells); settings: for remaining activity at 30 µM: CHO, % ACh maximum at 30 μM, read-out: Emin (%) human M4; for pIC50: antagonist mode, decrease of the response to an EC80 concentration of acetylcholine, CHO-K1 cells with Gqi5
T2 construct: expressed in transfected cells; host or cells: CHO-K1 (ATCC), co-transfected with chimeric G protein Gqi5
T2 sequence (P08173 1-479): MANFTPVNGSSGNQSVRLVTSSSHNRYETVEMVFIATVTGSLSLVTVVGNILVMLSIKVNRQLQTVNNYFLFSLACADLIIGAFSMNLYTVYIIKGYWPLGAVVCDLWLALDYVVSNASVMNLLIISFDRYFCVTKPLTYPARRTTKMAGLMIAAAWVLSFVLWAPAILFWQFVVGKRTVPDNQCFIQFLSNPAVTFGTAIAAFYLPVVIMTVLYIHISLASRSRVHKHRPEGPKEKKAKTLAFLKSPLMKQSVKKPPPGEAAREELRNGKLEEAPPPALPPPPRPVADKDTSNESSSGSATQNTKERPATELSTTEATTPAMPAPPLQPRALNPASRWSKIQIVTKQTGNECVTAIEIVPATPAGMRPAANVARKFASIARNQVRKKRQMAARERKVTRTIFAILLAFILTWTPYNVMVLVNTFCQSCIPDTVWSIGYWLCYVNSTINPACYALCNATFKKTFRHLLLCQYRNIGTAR
Experimental: as §1, §2, §3, §4

[1] = tested on: catalepsy induced by the DA receptor antagonist haloperidol; assay: haloperidol-induced catalepsy; type: in vivo, mice
Text: Furthermore, haloperidol-induced catalepsy, a model of parkinsonian motor disability, is reduced in M4 knockout mice as compared to wild-type controls. […] The reversal by scopolamine was uncommonly robust and more pronounced than we observe with agents targeting a number of other targets being evaluated for potential antiparkinsonian effects, including metabotropic glutamate (mGlu) receptors mGlu4 or mGlu5, A2A adenosine receptors, and NMDA receptors. […] Taken together with the extensive studies of M4 modulation of basal ganglia and motor function, these studies provide compelling evidence that M4 is the dominant mAChR subtype involved in the antiparkinsonian effects of non-selective mAChR antagonists and provide support for discovery and development of selective M4 antagonists for treatment of neurodegenerative disease such as PD, dystonia, tardive dyskinesia and other movement disorders.

locomotor activity = settings: M4 knockout mice, but not the other four mAChR subtypes; cited from earlier work

SMILES: Fc1ccc(-c2ccc(N3CCC4CN(CC56CC7CC(CC(C7)C5)C6)CC43)nn2)c(Cl)c1 (stereo not drawn) [Compound 18, 5-(adamantan-1-ylmethyl)-1-(6-(2-chloro-4-fluorophenyl)pyridazin-3-yl)octahydropyrrolo[3,4-b]pyrrole]
- remaining activity at 30 µM (Rat M4): 36.4%
- pIC50 (Rat M4): < 5.00
- remaining activity at 30 µM (Human M4): 12%
- pIC50 (Human M4): < 5.00

SMILES: Cc1nn(C)c(C)c1-c1ccc(N2CCC3CN(CC45CC6CC(CC(C6)C4)C5)CC32)nn1 (stereo not drawn) [Compound 19, 5-(adamantan-1-ylmethyl)-1-(6-(1,3,5-trimethyl-1H-pyrazol-4-yl)pyridazin-3-yl)octahydropyrrolo[3,4-b]pyrrole]
- remaining activity at 30 µM (Rat M4): 4.41%
- pIC50 (Rat M4): 6.44
- remaining activity at 30 µM (Human M4): 3.18%
- pIC50 (Human M4): 6.89

SMILES: Cc1cnn(C)c1-c1ccc(N2CCC3CN(CCC(C)(C)C)CC32)nn1 (stereo not drawn) [Compound 20, 1-(6-(1,4-dimethyl-1H-pyrazol-5-yl)pyridazin-3-yl)-5-(3,3-dimethylbutyl)octahydropyrrolo[3,4-b]pyrrole]
- remaining activity at 30 µM (Rat M4): 22.7%
- pIC50 (Rat M4): < 5.00
- remaining activity at 30 µM (Human M4): 8.8%
- pIC50 (Human M4): 5.65

SMILES: Cc1cnn(C)c1-c1ccc(N2CC[C@@H]3CN(CC45CC6CC(CC(C6)C4)C5)C[C@@H]32)nn1 [Compound 21, (3aR,6aR)-5-(adamantan-1-ylmethyl)-1-(6-(1,4-dimethyl-1H-pyrazol-5-yl)pyridazin-3-yl)octahydropyrrolo[3,4-b]pyrrole]
- remaining activity at 30 µM (Rat M4): 3.71%
- pIC50 (Rat M4): 6.22
- remaining activity at 30 µM (Human M4): 4.08%
- pIC50 (Human M4): 6.83

SMILES: Cc1cnn(C)c1-c1ccc(N2CCC3CN(CC4CCOCC4)CC32)nn1 (stereo not drawn) [Compound 22, 1-(6-(1,4-dimethyl-1H-pyrazol-5-yl)pyridazin-3-yl)-5-((tetrahydro-2H-pyran-4-yl)methyl)octahydropyrrolo[3,4-b]pyrrole]
- remaining activity at 30 µM (Rat M4): 69.7%
- pIC50 (Rat M4): < 5.00
- remaining activity at 30 µM (Human M4): 36.1%
- pIC50 (Human M4): < 5.00

SMILES: Cc1cnn(C)c1-c1ccc(N2CC[C@H]3CN(CC45CC6CC(CC(C6)C4)C5)C[C@H]32)nn1 [Compound 23, (3aS,6aS)-5-(adamantan-1-ylmethyl)-1-(6-(1,4-dimethyl-1H-pyrazol-5-yl)pyridazin-3-yl)octahydropyrrolo[3,4-b]pyrrole]
- remaining activity at 30 µM (Rat M4): 4.52%
- pIC50 (Rat M4): 6.49
- remaining activity at 30 µM (Human M4): 3.91%
- pIC50 (Human M4): 6.99

SMILES: CN1[C@@H]2C[C@@H](OC(=O)[C@H](CO)c3ccccc3)C[C@H]1[C@@H]1O[C@@H]12 [scopolamine]
- reduction of haloperidol-induced catalepsy ([1]; M4 KO mice): ineffective in reducing catalepsy
- reversal of haloperidol-induced catalepsy ([1]; WT mice): completely reversed
- locomotor-activating effects (locomotor activity): dramatically reduced
